# Values quoted from earlier work in patent US10308909B2, “Dried spore germinative compound mixtures” (Envera, LLC, priority 2013, dated 2019).
# Legend:
# bacterial spores = settings: concentrations as low as
compound,measurement,setting,value
Oc1ccccc1 [phenol],concentration that inhibits germination,bacterial spores,0.2 % (wt./vol)
C[C@@H](N)C(=O)O [D-alanine],inhibition of Bacillus germination,Bacillus,powerful inhibitor of Bacillus germination
cresol,concentration that inhibits germination,bacterial spores,0.08 % (wt./vol)
